Measurements taken from patent publication US20150141506A1, “INDANE DIMERS FOR USE IN THE TREATMENT OF AUTOIMMUNE INFLAMMATORY DISEASE” (Venantius Limited, priority 2012, published 2015).
“Also recorded” adds a separate entry of the source. Marks after values point to notes of the source that are not given here.

Legend:
[1] = system: IL2 release from Jurkat cells; assay: Effect of compounds on IL-2 secretion in T lymphocytes (Jurkat 6.1, anti-CD3/anti-CD28 stimulated, ELISA); assay type: cell-based; conditions: for IL-2 production, absolute values: 30 min pre-treatment, DMSO control 320.67 (plate 2), 338.25 (plate 3); for IL-2 production, absolute values / activity at 1 µM / activity at 10 µM: 24 h; for activity at 1 µM / activity at 10 µM: Homo sapiens, Jurkat, read-out: IL2 release as percentage of anti-CD3/CD28 stimulated release in presence of DMSO, Mean
Experimental: The T cell line Jurkat 6.1 (ATCC) was used. Cells were pre-treated for 30 min with 1 μM or 10 μM of the respective compound and then stimulated with plate-bound anti-CD3 (BD Pharmingen) and anti-CD28 (AnCell). DMSO was used as vehicle control. […] After 24 hs the supernatant was collected and IL-2 secretion was measured by ELISA.
Compounds were prepared by dissolution in DMSO to yield final concentrations of 1 and 10 μg/ml

[2] = system: 5% DSS colitis in BALB/c mice; assay: Acute murine 5% DSS colitis model, Experiment 1; assay type: in vivo; conditions: for activity in 5% DSS murine colitis (DAI), in words: 30 mg/kg p.o. daily for 7 days
Excerpt: The study is widely used as a model for studying the pathogenesis of UC and also for screening new therapeutic interventions for the treatment of UC.
In these studies, an acute colitis model was used, with 5% DSS administered in the drinking water of BALB/c mice. This dosage regime induces severe acute colitis, by days 7-8 mice had overt rectal bleeding and marked weight loss; unless sacrificed beforehand, all mice would have died by days 10-12.
Specific Pathogen-Free BALB/c mice, 6-8 weeks of age, were obtained from a commercial supplier (Harlan UK). Mice were fed irradiated diet and housed in individually ventilated cages (Tecniplast UK) under positive pressure.
DSS (5%) was dissolved in drinking water. Compounds were administered orally at a dose of 10 mg/kg or 30 mg/kg on days 0-7, and mice were culled on day 8 or day 9, depending on the severity of the disease. The mice were checked each day for morbidity and the weight of individual mice was recorded. Induction of colitis was determined upon autopsy, length of colon and histology. Colons were recovered and stored at −20° C. for immunological analysis. All of the compounds and experimental groups are randomly alphabetically labelled. Throughout experiments all data recording was performed in a blind manner. The codes on boxes/groups were not broken until after the data was analysed i.e. boxes labelled A, B, C etc were identified as untreated, DSS-treated, or DSS+compound-treated.
To quantify the extent of colitis, a disease activity index (DAI) was determined based on weight loss, faecal blood and stool consistency. A score was given for each parameter, with the sum of the scores used as the DAI. For each treatment group n=8.
All compounds were prepared for oral gavage (0.1 mL per os (p.o.) per 10 g body weight) as a suspension in 0.5% carboxymethyl cellulose/2% Tween 80, at a dose of 3-30 mg/Kg.

[3] = Solubility in Milli-RO water and pH buffers; assay type: physicochemical
Experimental: The sodium salt, potassium salt, calcium salt, α-methylbenzylamine salt and N-Methyl-(D)-Glucamine salt were synthesised.
The solubility of the four compounds were determined: […]

[4] = Partition coefficient (Log10 POW) by HPLC method; assay type: physicochemical; conditions: reverse phase C18 HPLC
[5] = day 7, 10 mg/kg daily for 7 days, vehicle 9.3±0.51
[6] = day 7, 30 mg/kg p.o. daily for 7 days, vehicle 9.0±0.53

O=C(O)c1ccc(C[C@@]2(C3=Cc4ccccc4C3)Cc3ccccc3[C@H]2O)cc1 (single isomer, unassigned) [Compound 2]
IL-2 production, absolute values ([1]; compound 1 uM): 98.71 pg/mL | IL-2 production, absolute values ([1]; compound 10 uM): 124.36 pg/mL | activity in 5% DSS murine colitis (DAI), in words [2]: highly active | potency compared among the four enantiomers, in words ([2]; 30 and 10 mg/kg): most potent of the four enantiomers | disease activity index (DAI) [2, 5]: 2.1±0.7 | disease activity index (DAI) [2, 6]: 2.5±0.71 | aqueous solubility, in words ([3]; free acid enantiomers): limited aqueous solubility

C[C@]12C=CC(=O)C=C1CC[C@@H]1[C@@H]2[C@@H](O)C[C@@]2(C)[C@H]1CC[C@]2(O)C(=O)CO [Prednisolone, reference compound]
DAI on the day of autopsy versus vehicle controls ([2]; 5 mg/kg): reduced DAI scores | colon cytokine levels (IL1β, TNFα, IL6) ([2]; day 7, Prednisolone 5 mg/kg): reduced (p<0.05) | inhibition of colon shortening versus vehicle controls ([2]; day 7, Prednisolone 5 mg/kg): did have a significant effect | reduction of colonic myeloperoxidase (MPO) activity ([2]; day 7, Prednisolone 5 mg/kg): 54% | colon pathology (histology score) relative to vehicle ([2]; prednisolone 5 mg/Kg): no significant improvement

CNCC(O)C(O)C(O)C(O)CO.O=C(O)c1ccc(C[C@]2(C3=Cc4ccccc4C3)Cc3ccccc3[C@H]2O)cc1 [Compound 7, 6-(Methylamino)hexane-1,2,3,4,5-pentanol 4-(((1S,2R)-1-hydroxy-2,3-dihydro-1H,1′H-2,2′-biinden-2-yl)methyl)benzoate]
disease activity index (DAI) [2, 5]: no significant (P>0.05) effect | solubility, Milli-RO H20 ([3]; Milli-RO water, listed as Compound 5 N-Methyl-D-Glucamine salt): >60,000* μg/mL | solubility, pH 4.0 Buffer ([3]; pH 4.0 buffer): 0.14 μg/mL | solubility, pH 7.0 Buffer ([3]; pH 7.0 buffer, listed as Compound 5 N-Methyl-D-Glucamine salt): >60,000* μg/mL | solubility, pH 9.0 Buffer ([3]; pH 9.0 buffer, listed as Compound 5 N-Methyl-D-Glucamine salt): >60,000* μg/mL | Log10 POW, Acid ([4]; acidic pH): 3.8 | Log10 POW, Basic ([4]; alkaline pH): 3.5 | Log10 POW, Neutral ([4]; neutral pH): 3.5

O=C(O)c1ccc(C[C@]2(C3=Cc4ccccc4C3)Cc3ccccc3[C@@H]2O)cc1 (single isomer, unassigned) [Compound 3]
IL-2 production, absolute values ([1]; compound 1 uM): 150.07 pg/mL | IL-2 production, absolute values ([1]; compound 10 uM): 98.57 pg/mL | activity in 5% DSS murine colitis (DAI), in words [2]: minimal activity | disease activity index (DAI) [2, 6]: 5.3±0.6

NC(=O)c1ccc(C[C@@]2(C3=Cc4ccccc4C3)Cc3ccccc3[C@H]2O)cc1 [Compound 20, 4-{[(1′S,2′S)-1′-hydroxy-1′,3′-dihydro-1H,2′H-2,2′-biinden-2′-yl]methyl}benzamide]
IL-2 production, absolute values ([1]; compound 1 uM): 174.11 pg/mL | IL-2 production, absolute values ([1]; compound 10 uM): 141.78 pg/mL

COC(=O)c1ccc(C[C@@]2(C3=Cc4ccccc4C3)Cc3ccccc3[C@H]2OC(=O)[C@@H](N)CC(C)C)cc1 [Compound 39, methyl 4-(((1S,2S)-1-(((S)-2-amino-4-methylpentanoyl)oxy)-2,3-dihydro-1H,1′H-[2,2′-biinden]-2-yl)methyl)benzoate]
activity at 1 µM [1]: 73.7% | activity at 10 µM [1]: 21.7% | IL-2 production, absolute values ([1]; compound 1 uM): 105.94 pg/mL | IL-2 production, absolute values ([1]; compound 10 uM): 40.69 pg/mL

CCCOC(=O)c1ccc(C[C@@]2(C3=Cc4ccccc4C3)Cc3ccccc3[C@H]2O)cc1 [Compound 19, propyl 4-(((1S,2S)-1-hydroxy-2,3-dihydro-1H,1′H-[2,2′-biinden]-2-yl)methyl)benzoate]
IL-2 production, absolute values ([1]; compound 1 uM): 174.44 pg/mL | IL-2 production, absolute values ([1]; compound 10 uM): 81.00 pg/mL

CC(C)[C@H](N)C(=O)O[C@@H]1c2ccccc2C[C@@]1(Cc1ccc(C(=O)O)cc1)C1=Cc2ccccc2C1 [Compound 29, 4-{[(1′S,2′S)-1′-(L-valyloxy)-1′,3′-dihydro-1H,2′H-2,2′-biinden-2′-yl]methyl}benzoic acid]
IL-2 production, absolute values ([1]; compound 1 uM): 220.50 pg/mL | IL-2 production, absolute values ([1]; compound 10 uM): 177.88 pg/mL

CCCOC(=O)c1ccc(C[C@]2(C3=Cc4ccccc4C3)Cc3ccccc3[C@@H]2O)cc1 [Compound 12, propyl 4-(((1R,2R)-1-hydroxy-2,3-dihydro-1H,1′H-[2,2′-biinden]-2-yl)methyl)benzoate]
IL-2 production, absolute values ([1]; compound 1 uM): 240.22 pg/mL | IL-2 production, absolute values ([1]; compound 10 uM): 132.44 pg/mL

CC[C@H](C)[C@H](N)C(=O)O[C@@H]1c2ccccc2C[C@@]1(Cc1ccc(C(=O)O)cc1)C1=Cc2ccccc2C1 [Compound 30, 4-{[(1′S,2′S)-1′-(L-isoleucyloxy)-1′,3′-dihydro-1H,2′H-2,2′-biinden-2′-yl]methyl}benzoic acid]
IL-2 production, absolute values ([1]; compound 1 uM): 191.63 pg/mL | IL-2 production, absolute values ([1]; compound 10 uM): 174.50 pg/mL

CC(C)C[C@H](N)C(=O)O[C@H]1c2ccccc2C[C@]1(Cc1ccc(C(N)=O)cc1)C1=Cc2ccccc2C1 [Compound 35, (1R,2R)-2-(4-carbamoylbenzyl)-2,3-dihydro-1H,1′H-2,2′-biinden-1-yl L-leucinate]
effect on IL2 release, in words ([1]; 1 and 10 μM): inactive | activity at 1 µM [1]: 149% | activity at 10 µM [1]: 95.5% | IL-2 production, absolute values ([1]; compound 1 uM): 238.88 pg/mL | IL-2 production, absolute values ([1]; compound 10 uM): 189.38 pg/mL

CC(C)[C@H](N)C(=O)O[C@H]1c2ccccc2C[C@]1(Cc1ccc(C(=O)O)cc1)C1=Cc2ccccc2C1 [Compound 25, 4-{[(1′R,2′R)-1′-(L-valyloxy)-1′,3′-dihydro-1H,2′H-2,2′-biinden-2′-yl]methyl}benzoic acid]
IL-2 production, absolute values ([1]; compound 1 uM): 208.38 pg/mL | IL-2 production, absolute values ([1]; compound 10 uM): 174.25 pg/mL

CCOC(=O)c1ccc(C[C@]2(C3=Cc4ccccc4C3)Cc3ccccc3[C@@H]2OC(=O)[C@@H](N)CC(C)C)cc1 [Compound 33, ethyl 4-(((1R,2R)-1-(((S)-2-amino-4-methylpentanoyl)oxy)-2,3-dihydro-1H,1′H-[2,2′-biinden]-2-yl)methyl)benzoate]
activity at 1 µM [1]: 89.4% | activity at 10 µM [1]: 43.6% | IL-2 production, absolute values ([1]; compound 1 uM): 186.25 pg/mL | IL-2 production, absolute values ([1]; compound 10 uM): 74.38 pg/mL

NC(=O)c1ccc(C[C@]2(C3=Cc4ccccc4C3)Cc3ccccc3[C@@H]2O)cc1 [Compound 13, 4-{[(1′R,2′R)-1′-hydroxy-1′,3′-dihydro-1H,2′H-2,2′-biinden-2′-yl]methyl}benzamide]
IL-2 production, absolute values ([1]; compound 1 uM): 276.78 pg/mL | IL-2 production, absolute values ([1]; compound 10 uM): 151.78 pg/mL

O=C(O)c1ccc(C[C@@]2(C3=Cc4ccccc4C3)Cc3ccccc3[C@@H]2O)cc1 [Compound 4, 4-(((1R,2S)-1-hydroxy-2,3-dihydro-1H,1′H-2,2′-biinden-2-yl)methyl)benzoic acid]
IL-2 production, absolute values ([1]; compound 1 uM): 97.21 pg/mL | IL-2 production, absolute values ([1]; compound 10 uM): 94.21 pg/mL | activity in 5% DSS murine colitis (DAI), in words [2]: without activity; also recorded: almost devoid of activity

CCOC(=O)c1ccc(C[C@@]2(C3=Cc4ccccc4C3)Cc3ccccc3[C@H]2OC(=O)[C@@H](N)CC(C)C)cc1 [Compound 40, ethyl 4-(((1S,2S)-1-(((S)-2-amino-4-methylpentanoyl)oxy)-2,3-dihydro-1H,1′H-[2,2′-biinden]-2-yl)methyl)benzoate]
activity at 1 µM [1]: 82.6% | activity at 10 µM [1]: 20.9% | IL-2 production, absolute values ([1]; compound 1 uM): 84.86 pg/mL | IL-2 production, absolute values ([1]; compound 10 uM): 12.71 pg/mL

O=C(NCCO)c1ccc(C[C@]2(C3=Cc4ccccc4C3)Cc3ccccc3[C@@H]2O)cc1 [Compound 14, 4-{[(1′R,2′R)-1′-hydroxy-1′,3′-dihydro-1H,2′H-2,2′-biinden-2′-yl]methyl}-N-(2-hydroxyethyl)benzamide]
IL-2 production, absolute values ([1]; compound 1 uM): 214.44 pg/mL | IL-2 production, absolute values ([1]; compound 10 uM): 146.44 pg/mL
